Test results: patent US11739120B2, “Water soluble salts of lipidated peptides and methods for preparing and using the same” (Bridge Biotherapeutics, Inc., priority 2018, dated 2023)
≈ marks a conversion by molar mass, not a printed value. Residues, ends and D or L forms follow the SMILES beside them. *: point of attachment. Palmitoyl = CCCCCCCCCCCCCCCC(=O)*

Key:
[1] = Physical stability of Compound I-1 in meglumine solutions; type: physicochemical; conditions: for Appearance: precipitation after (storage time) / Appearance: no precipitation until (storage time): vehicle Meglumine, 25° C.
Experimental: In contrast, an aqueous formulation with a concentration of Compound I-1 of 200 mg/mL, without meglumine, started forming precipitates after storing 1 day at 25° C.

[2] = Aqueous solubility of Compound I-1 in the presence of excipients; type: physicochemical; conditions: 25° C.
Experimental: Specifically, about 50 mg of Compound I-1 was weighed into a 1.5-mL HPLC vial, and 0.2 mL of different media was then added to each vial. The mixtures were shaken at 25° C. under 700 rpm. After 24 hours of shaking, the slurries were centrifuged twice and analyzed. The supernatant was analyzed by HPLC.

[3] = Stabilities of amorphous Compound I-1 (ICH guideline, XRPD); type: physicochemical; conditions: amorphous; 25±2° C./60±5% RH and 40±2° C./75±5% RH; ICH guideline
Experimental: Stabilities of amorphous Compound I-1 were also conducted according to ICH guideline.

[4] = Solubility of amorphous, Form A and Form E of Compound I-1 in water (shaken at 25° C., HPLC); type: physicochemical; conditions: for Final pH: mother liquor; for XRPD pattern (wet): residue of the suspension in water
Experimental: The solubility of amorphous, Form A or E of Compound I-1 in water was further studied. Specifically, about 250 mg Compound I-1 in amorphous, Forms A and E were each suspended in a 2 mL HPLC vial with 0.9 mL of water. Each suspension was then shaken at 25° C. under 1000 rpm. The suspensions were analyzed at 1 h and 24 h. In particular, at either the 1 h or 24 h time point, the slurries were centrifuged and analyzed by HPLC. The pH values of the mother liquors were measured, and the residues were characterized by XRPD.

[5] = Aqueous solubility of Compound I-1 in the presence of excipients; type: physicochemical; conditions: approximate solubility by visual observation
[6] = system: DSS induced colitis animal model; experiment: DSS induced colitis animal model; type: in vivo; conditions: formulations containing Compound I-1
Excerpt: The compound of Formula I (e.g., Formula I-B or I-C, or any one of Compounds I-1 to I-10) described herein is useful for treating various diseases or disorders discussed herein. […] In addition, it was shown that effective concentration of the acid compounds can be retained in a targeted tissue (e.g., small intestinal tissues, large intestinal tissues, appendix tissues) for a sufficient time. […] Those skilled in the art would expect that the salts of Compound I-1-Acid, such as Compound I-1, be similarly efficacious.

[7] = system: inflammatory bowel diseases, multiple sclerosis, and septicemia; conditions: shown in U.S. application Ser. No. 15/205,853; cited from earlier work
[8] = Approximate solubility of Compound I-1-Acid in different solvents (manual dilution, visual observation); type: physicochemical
Experimental: The solubility test was conducted by manual dilution combined with visual observation. As shown below, Compound I-1-Acid has poor solubility (<1 mg/mL) in most organic solvents and water (Table 1).

[9] = Water solubility of Compound I-1-Acid (further investigation); type: physicochemical
[10] = Approximate solubility of Compound I-2 (amorphous) at room temperature; type: physicochemical
Experimental: The solubility of Compound I-2 (amorphous) at room temperature was tested using a method similar to those described in Examples 4 and 5. The solubility test results are described in Table 6.

[11] = Crystalline stability of Form A2 of Compound I-2 on storage; type: physicochemical; conditions: 25° C./92.5% RH, 40° C./75% RH, 60° C.; 25 days
[12] = Hygroscopicity by Dynamic Vapor Sorption (DVS); type: physicochemical
Experimental: A polymorph screening study on Compound I-1-Acid was also carried out, which identified Form 1. […] About 0.25% weight loss from 25° C. to 120° C. and about 0.42% weight loss from 120° C. to 150° C.
Compound I-2 can have different crystalline forms. Two different polymorphs, Forms A2 and B2 were identified. Form A2 can be prepared as follows. Specifically, the white solid of Compound I-2 obtained above was dissolved in 30 mL THF:water (95:5, v/v). […] The suspension was then allowed to be stirred at room temperature overnight. After which, the solid was filtered, washed with THF:water:MTBE=7.5:1:53 (25 mL*3) to remove excess KOH, and then dried under vacuum at 25° C. overnight to provide Form A2.

[13] = Kinetic solubility of potassium salt Compound I-2 (further research); type: physicochemical; conditions: water; 25° C.
[14] = water, 25° C., time point 1 hour
[15] = water, 25° C., time point 24 hours

For `CCCCCCCCCCCCCCCC(=O)N1CCC[C@H]1C(=O)N1CCC[C@H]1C(=O)NCC(=O)N[C@@H](Cc1ccc(O)cc1)C(=O)[O-].[Na+]` [Compound I-1, sodium palmitoyl-L-prolyl-L-prolylglycyl-L-tyrosinate] (Palmitoyl-PPGY-OH), the “physical stability of solution” value ([1]; 200 mg/mL in water with 3%, 4%, or 5% meglumine, stored at 25° C., 13 days) was “good physical stability”, the “physical stability of solution” value ([1]; stored at 5° C., 5 mg/mL solution formulation with meglumine (2-5%)) was “not physically stable” and the “Appearance: precipitation after (storage time)” value (“Appearance: precipitation” for short) ([1]; 2%, 200 mg/mL) was “Precipitation after 2 days”. For the same compound, the “Appearance: precipitation” value ([1]; 2%, 250 mg/mL) was “Precipitation after 1 day”, the “Appearance: no precipitation until (storage time)” value (from here on “Appearance: no precipitation until”) ([1]; 3%, 200 mg/mL) was no less than 3 weeks and the “Appearance: no precipitation until” value ([1]; 4%, 200 mg/mL) was no less than 3 weeks. The “Appearance: no precipitation until” value ([1]; 5%, 200 mg/mL) was no less than 3 weeks, the “Appearance: precipitation” value ([1]; 5%, 250 mg/mL) was “Precipitation after 5 days” and the “Appearance: precipitation” value ([1]; 5%, 300 mg/mL) was “Precipitation after 3 days”. The solubility at 24 h ([2]; water with Cremophor RH 40 1% (w/v), HPLC) was 231000 µg/mL, the solubility at 24 h ([2]; water with Cremophor RH 40 10% (w/v), HPLC) was 209000 µg/mL and the solubility at 24 h ([2]; water with Meglumine 1% (w/v), HPLC) was 190000 µg/mL. The solubility at 24 h ([2]; water with Meglumine 10% (w/v)) was greater than 270000 µg/mL, the solubility at 24 h ([2]; water with TWEEN 80 1% (w/v), HPLC) was 215000 µg/mL and the solubility at 24 h ([2]; water with TWEEN 80 10% (w/v), HPLC) was 198000 µg/mL. For the same compound, the “stable for (storage time)” value [3] was no less than 6 months, the solubility kinetic ([4]; water, 25° C.) was roughly 200000 µg/mL and the solubility ([5]; water with HPMC E3 5% (w/v)) was less than 250000 µg/mL. For the same compound, the solubility ([5]; water with HPβCD 5% (w/v)) was less than 250000 µg/mL, the solubility ([5]; water with Meglumine 2% (w/v)) was greater than 250000 µg/mL and the solubility ([5]; water with Meglumine 5% (w/v)) was greater than 250000 µg/mL. For the same compound, the solubility ([5]; water with Meglumine:Cremophor RH 40 (1:1, w/w) 10% (w/v)) was greater than 250000 µg/mL and the total colitis scores [6] was “statistically significant improvement”.

For `CCCCCCCCCCCCCCCC(=O)N1CCC[C@H]1C(=O)N1CCC[C@H]1C(=O)NCC(=O)N[C@@H](Cc1ccc(O)cc1)C(=O)[O-].[Na+]` [Form E] (Palmitoyl-PPGY-OH), the “Final pH” value [4, 14] was 9.08, the “Final pH” value [4, 15] was 8.70 and the “XRPD pattern (wet)” value ([4]; 25° C., time point 1 hour) was “A + D”. For the same compound, the “Solubility at 25° C.” value ([4]; water, time point 24 hours) was 199400 µg/mL.

In the case of `CCCCCCCCCCCCCCCC(=O)N1CCC[C@H]1C(=O)N1CCC[C@H]1C(=O)NCC(=O)N[C@@H](Cc1ccc(O)cc1)C(=O)O` [Compound I-1-Acid] (Palmitoyl-PPGY-OH), the “treating inflammatory bowel diseases, multiple sclerosis, and septicemia” value [7] is given as “effective”, the solubility ([8]; 1,4-Dioxane, room temperature) is given as less than 1000 µg/mL and the solubility ([8]; 1-butanol, room temperature) is given as less than 1000 µg/mL. It also gave a solubility ([8]; 2-Methyl Tetrahydrofuran, room temperature) of less than 1000 µg/mL, a solubility ([8]; ACN—H2O (1:1), room temperature) of less than 1000 µg/mL and a solubility ([8]; Acetone-H2O (1:2), room temperature) of less than 1000 µg/mL. The solubility ([8]; Acetone, room temperature) was less than 1000 µg/mL, the solubility ([8]; Acetonitrile, room temperature) was less than 1000 µg/mL and the solubility ([8]; Cyclohexane, room temperature) was less than 1000 µg/mL. It also gave a solubility ([8]; EtOH—H2O (1:1), room temperature) of less than 1000 µg/mL, a solubility ([8]; EtOH—H2O (3:1), room temperature) of less than 1000 µg/mL and a solubility ([8]; Ethanol, room temperature) of less than 1000 µg/mL. The solubility ([8]; Ethyl acetate, room temperature) was less than 1000 µg/mL, the solubility ([8]; Heptane, room temperature) was less than 1000 µg/mL and the solubility ([8]; Isopropyl acetate, room temperature) was less than 1000 µg/mL. For the same compound, the solubility ([8]; Isopropyl alcohol, room temperature) was less than 1000 µg/mL, the solubility ([8]; MeOH—H2O (1:1), room temperature) was less than 1000 µg/mL and the solubility ([8]; MeOH—H2O (3:1), room temperature) was less than 1000 µg/mL. The solubility ([8]; Methyl ethyl ketone, room temperature) was less than 1000 µg/mL, the solubility ([8]; Methyl isobutyl ketone, room temperature) was less than 1000 µg/mL and the solubility ([8]; Methyl t-butyl ether, room temperature) was less than 1000 µg/mL. For the same compound, the solubility ([8]; N-methyl pyrrolidone, room temperature) was 1000 to 5000 µg/mL (≈ 1490 to 7450 µM), the solubility ([8]; Tetrahydrofuran, room temperature) was less than 1000 µg/mL and the solubility ([8]; Toluene, room temperature) was less than 1000 µg/mL. It also gave a solubility ([8]; Water, room temperature) of less than 1000 µg/mL, a solubility ([8]; most organic solvents and water, ambient laboratory temperature) of less than 1000 µg/mL and a solubility [9] of less than 2 µg/mL.

Compound `CCCCCCCCCCCCCCCC(=O)N1CCC[C@H]1C(=O)N1CCC[C@H]1C(=O)NCC(=O)N[C@@H](Cc1ccc(O)cc1)C(=O)[O-].[K+]` [Compound I-2 (amorphous)] (Palmitoyl-PPGY-OH) has a solubility ([10]; 1,4-Dioxane) of less than 1000 µg/mL, a solubility ([10]; 1-butanol) of 1000 to 5000 µg/mL and a solubility ([10]; 2-Methyl Tetrahydrofuran) of less than 1000 µg/mL. It also gave a solubility ([10]; Acetone) of less than 1000 µg/mL, a solubility ([10]; Acetone: H2O (97:3)) of less than 1000 µg/mL and a solubility ([10]; Acetonitrile) of less than 1000 µg/mL. The solubility ([10]; Acetonitrile:H2O (95:5)) was less than 1000 µg/mL, the solubility ([10]; Cyclohexane) was less than 1000 µg/mL and the solubility ([10]; DMF) was 50000 to 100000 µg/mL. For the same compound, the solubility ([10]; DMSO) was 50000 to 100000 µg/mL, the solubility ([10]; Ethanol) was 50000 to 100000 µg/mL and the solubility ([10]; Ethanol:H2O (90:10)) was 25000 to 50000 µg/mL. It also gave a solubility ([10]; Ethanol:H2O (95:5)) of 25000 to 50000 µg/mL, a solubility ([10]; Ethyl acetate) of less than 1000 µg/mL and a solubility ([10]; Heptane) of less than 1000 µg/mL. It also gave a solubility ([10]; Isopropyl acetate) of less than 1000 µg/mL, a solubility ([10]; Isopropyl alcohol) of 1000 to 5000 µg/mL and a solubility ([10]; Methanol) greater than 100000 µg/mL. The solubility ([10]; Methanol:H2O (90:10)) was greater than 100000 µg/mL, the solubility ([10]; Methanol:H2O (95:5)) was greater than 100000 µg/mL and the solubility ([10]; Methyl ethyl ketone) was less than 1000 µg/mL. The solubility ([10]; Methyl isobutyl ketone) was less than 1000 µg/mL, the solubility ([10]; Methyl t-butyl ether) was less than 1000 µg/mL and the solubility ([10]; N-methyl pyrrolidone) was 50000 to 100000 µg/mL. For the same compound, the solubility ([10]; Tetrahydrofuran) was less than 1000 µg/mL, the solubility ([10]; Tetrahydrofuran:H2O (95:5)) was 50000 to 100000 µg/mL and the solubility ([10]; Toluene) was less than 1000 µg/mL. The solubility ([10]; Water) was greater than 100000 µg/mL.

In the case of `CCCCCCCCCCCCCCCC(=O)N1CCC[C@H]1C(=O)N1CCC[C@H]1C(=O)NCC(=O)N[C@@H](Cc1ccc(O)cc1)C(=O)[O-].[K+]` [Form A2] (Palmitoyl-PPGY-OH), the “crystalline stability on storage” value [11] is reported as “stable”, the “hygroscopicity (DVS)” value [12] is reported as “hygroscopic” and the “water absorption (DVS isotherm)” value [12] is reported as “about 8%”.

`CCCCCCCCCCCCCCCC(=O)N1CCC[C@H]1C(=O)N1CCC[C@H]1C(=O)NCC(=O)N[C@@H](Cc1ccc(O)cc1)C(=O)[O-].[K+]` [Compound I-2] (Palmitoyl-PPGY-OH) showed a solubility kinetic [13] of 166000 to 200000 µg/mL.

With `CCCCCCCCCCCCCCCC(=O)N1CCC[C@H]1C(=O)N1CCC[C@H]1C(=O)NCC(=O)N[C@@H](Cc1ccc(O)cc1)C(=O)[O-].[Na+]` [Form A] (Palmitoyl-PPGY-OH) the “Final pH” value [4, 14] was 8.91, the “Final pH” value [4, 15] was 8.70 and the “XRPD pattern (wet)” value ([4]; 25° C., time point 1 hour) was “A + D”. For the same compound, the “Solubility at 25° C.” value ([4]; water, time point 24 hours) was 208600 µg/mL.
